Experimental data taken from ChEMBL document CHEMBL1268885, “Subtype-selective Na(v)1.8 sodium channel blockers: identification of potent, orally active nicotinamide derivatives” (Bioorg Med Chem Lett, 2010).
In brackets after ≈: the same amount, converted by molar mass.

Key:
[1] = target: Sodium channel protein type 10 subunit alpha (Homo sapiens, UniProt Q9Y5Y9); assay: Inhibition of human NaV1.8 by electrophysiology
[2] = target: Sodium channel protein type 2 subunit alpha (Homo sapiens, UniProt Q99250); assay: Inhibition of human NaV1.2 by electrophysiology
[3] = target: Sodium channel protein type 10 subunit alpha (Rattus norvegicus, UniProt Q62968); assay: Inhibition of tetrodotoxin-resistant NaV1.8 in rat DRG neuron by electrophysiology
[4] = target: Sodium channel protein type 10 subunit alpha (Mus musculus, UniProt Q6QIY3); assay: Inhibition of mouse NaV1.8 by isotopic flux assay
Homo sapiens [5] = organism: Homo sapiens; assay: Selectivity ratio of IC50 for human NAv1.2 to IC50 for human Nav1.8
Homo sapiens [6] = organism: Homo sapiens; assay: Selectivity ratio of IC50 for human ERG to IC50 for human Nav1.8
[7] = Intrinsic clearance in rat microsomes after 1 hr; format: ADME, Microsome
[8] = Intrinsic clearance in human microsomes; format: ADME, Microsome
[9] = target: Sodium channel protein type 5 subunit alpha (Homo sapiens, UniProt Q14524); assay: Inhibition of human NaV1.5 by electrophysiology
[10] = target: Voltage-gated inwardly rectifying potassium channel KCNH2 (Homo sapiens, UniProt Q12809); assay: Inhibition of human ERG by Isotopic flux assay
[11] = Aqueous solubility of the compound; format: physicochemical; conditions: buffer
[12] = Oral bioavailability in rat at 3 mg/kg; format: ADME, organism-based; conditions: in vivo
[13] = Cmax in rat; format: ADME, organism-based; conditions: in vivo
[14] = Plasma clearance in rat; format: ADME, organism-based
[15] = Volume of distribution at steady state in rat; format: ADME, organism-based; conditions: in vivo, read-out: Vdss
[16] = Ratio of drug level in brain to plasma in rat; format: ADME, cell-free; conditions: read-out: BPR
Plasma = assay: (§1) Plasma protein binding in rat; format: ADME, cell-free
Rattus norvegicus [17] = organism: Rattus norvegicus; assay: Analgesic activity in rat Chung model of neuropathic pain; format: functional
Rattus norvegicus [18] = organism: Rattus norvegicus; assay: Analgesic activity in rat Chung model of neuropathic pain assessed as decrease in von Frey filament-induced pain; format: functional
[19] = Inhibition of chloride channel at 10 uM
[20] = target: Transient receptor potential cation channel subfamily V member 1 (Homo sapiens, UniProt Q8NER1); assay: Inhibition of TRPV1
[21] = target: T1, P2X2/P2X3 heterotrimeric receptor (Homo sapiens, UniProt P56373+Q9UBL9); assay: Inhibition of P2X2/3 receptor; format: protein-complex assay
T1 sequence (Q9UBL9 whole entry): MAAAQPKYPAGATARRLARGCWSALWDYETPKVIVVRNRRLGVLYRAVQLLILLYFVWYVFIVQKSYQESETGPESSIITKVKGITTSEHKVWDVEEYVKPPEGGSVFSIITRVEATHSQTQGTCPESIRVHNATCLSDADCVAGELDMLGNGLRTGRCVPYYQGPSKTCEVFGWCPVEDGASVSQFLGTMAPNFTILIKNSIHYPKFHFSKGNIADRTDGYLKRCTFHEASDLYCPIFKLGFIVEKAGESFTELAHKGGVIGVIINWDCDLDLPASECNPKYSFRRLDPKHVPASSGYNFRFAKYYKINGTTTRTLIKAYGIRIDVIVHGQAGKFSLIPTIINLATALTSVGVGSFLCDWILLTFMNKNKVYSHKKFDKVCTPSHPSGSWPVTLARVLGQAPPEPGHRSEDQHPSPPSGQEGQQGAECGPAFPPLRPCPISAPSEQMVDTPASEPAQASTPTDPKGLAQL
T1 sequence (P56373 whole entry): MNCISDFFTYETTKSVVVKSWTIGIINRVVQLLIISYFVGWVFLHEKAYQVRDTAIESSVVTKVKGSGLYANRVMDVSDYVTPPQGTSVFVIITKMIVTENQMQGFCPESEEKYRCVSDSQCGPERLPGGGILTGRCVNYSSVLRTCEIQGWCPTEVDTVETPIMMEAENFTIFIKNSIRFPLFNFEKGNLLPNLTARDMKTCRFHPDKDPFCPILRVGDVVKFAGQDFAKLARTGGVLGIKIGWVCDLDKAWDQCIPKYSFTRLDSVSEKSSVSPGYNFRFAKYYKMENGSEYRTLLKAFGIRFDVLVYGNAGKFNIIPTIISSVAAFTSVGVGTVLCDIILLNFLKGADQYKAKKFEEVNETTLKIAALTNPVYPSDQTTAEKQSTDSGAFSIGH

[22] = target: Voltage-dependent N-type calcium channel subunit alpha-1B (Homo sapiens, UniProt Q00975); assay: Inhibition of CaV2.2
[23] = target: Voltage-gated potassium channel, KQT; KCNQ2(Kv7.2)/KCNQ3(Kv7.3) (Homo sapiens, UniProt O43525+O43526); assay: Inhibition of KCNQ2/Q3; format: protein-complex assay
[24] = as §1; format: ADME, cell-free; conditions: read-out: PPB (converted)
[25] = Inhibition of benzodiazepine receptor at 10 uM

Sequence of Sodium channel protein type 10 subunit alpha (Rattus norvegicus, UniProt Q62968) (Q62968 whole entry): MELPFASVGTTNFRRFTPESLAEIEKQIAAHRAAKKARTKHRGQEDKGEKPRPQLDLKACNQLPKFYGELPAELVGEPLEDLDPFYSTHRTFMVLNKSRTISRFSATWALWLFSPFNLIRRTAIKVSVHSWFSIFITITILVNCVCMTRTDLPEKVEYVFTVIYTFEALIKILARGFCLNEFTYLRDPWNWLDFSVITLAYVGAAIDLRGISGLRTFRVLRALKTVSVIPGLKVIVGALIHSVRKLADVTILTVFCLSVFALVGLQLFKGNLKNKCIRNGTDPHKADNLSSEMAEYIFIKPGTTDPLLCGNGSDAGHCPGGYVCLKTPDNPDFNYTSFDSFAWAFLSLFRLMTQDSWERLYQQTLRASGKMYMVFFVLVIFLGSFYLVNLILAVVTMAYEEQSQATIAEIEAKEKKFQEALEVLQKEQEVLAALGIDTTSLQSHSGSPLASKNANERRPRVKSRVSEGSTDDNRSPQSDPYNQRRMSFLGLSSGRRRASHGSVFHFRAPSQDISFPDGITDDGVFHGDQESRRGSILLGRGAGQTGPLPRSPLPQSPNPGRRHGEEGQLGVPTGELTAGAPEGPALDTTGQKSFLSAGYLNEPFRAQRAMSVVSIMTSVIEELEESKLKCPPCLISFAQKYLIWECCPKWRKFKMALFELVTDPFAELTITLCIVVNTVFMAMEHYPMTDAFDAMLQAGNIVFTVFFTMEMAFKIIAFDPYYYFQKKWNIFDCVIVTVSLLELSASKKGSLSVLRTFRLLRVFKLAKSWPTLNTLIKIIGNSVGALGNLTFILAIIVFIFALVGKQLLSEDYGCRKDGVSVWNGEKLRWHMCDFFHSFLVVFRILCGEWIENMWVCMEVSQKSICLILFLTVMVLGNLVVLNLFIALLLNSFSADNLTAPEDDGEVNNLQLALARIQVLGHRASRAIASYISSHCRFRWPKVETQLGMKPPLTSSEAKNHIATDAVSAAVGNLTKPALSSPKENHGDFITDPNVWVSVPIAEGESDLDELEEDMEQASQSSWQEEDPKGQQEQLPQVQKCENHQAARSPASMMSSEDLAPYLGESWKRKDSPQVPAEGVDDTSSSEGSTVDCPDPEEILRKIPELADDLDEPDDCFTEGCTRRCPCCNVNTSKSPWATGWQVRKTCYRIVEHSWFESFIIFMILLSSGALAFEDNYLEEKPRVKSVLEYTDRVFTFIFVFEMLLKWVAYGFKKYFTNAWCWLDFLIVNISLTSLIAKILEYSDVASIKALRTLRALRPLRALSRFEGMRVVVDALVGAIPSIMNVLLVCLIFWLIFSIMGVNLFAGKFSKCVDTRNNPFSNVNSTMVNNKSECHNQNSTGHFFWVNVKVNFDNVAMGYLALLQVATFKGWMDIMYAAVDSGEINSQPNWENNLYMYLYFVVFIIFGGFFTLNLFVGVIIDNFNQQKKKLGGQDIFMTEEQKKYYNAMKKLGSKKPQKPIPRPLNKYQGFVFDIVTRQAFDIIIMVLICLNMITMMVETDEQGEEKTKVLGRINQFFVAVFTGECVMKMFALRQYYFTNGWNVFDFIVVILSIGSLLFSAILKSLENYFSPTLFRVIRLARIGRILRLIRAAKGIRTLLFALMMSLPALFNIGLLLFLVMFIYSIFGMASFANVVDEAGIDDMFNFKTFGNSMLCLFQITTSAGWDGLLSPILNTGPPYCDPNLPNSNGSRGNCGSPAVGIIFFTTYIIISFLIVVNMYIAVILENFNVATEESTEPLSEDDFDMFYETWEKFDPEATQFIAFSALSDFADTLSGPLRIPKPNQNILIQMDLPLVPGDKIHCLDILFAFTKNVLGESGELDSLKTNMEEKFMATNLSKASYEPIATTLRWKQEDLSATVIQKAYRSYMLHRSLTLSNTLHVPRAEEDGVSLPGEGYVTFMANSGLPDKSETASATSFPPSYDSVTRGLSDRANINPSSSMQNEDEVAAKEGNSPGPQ
Sequence of Sodium channel protein type 10 subunit alpha (Homo sapiens, UniProt Q9Y5Y9) (Q9Y5Y9 whole entry): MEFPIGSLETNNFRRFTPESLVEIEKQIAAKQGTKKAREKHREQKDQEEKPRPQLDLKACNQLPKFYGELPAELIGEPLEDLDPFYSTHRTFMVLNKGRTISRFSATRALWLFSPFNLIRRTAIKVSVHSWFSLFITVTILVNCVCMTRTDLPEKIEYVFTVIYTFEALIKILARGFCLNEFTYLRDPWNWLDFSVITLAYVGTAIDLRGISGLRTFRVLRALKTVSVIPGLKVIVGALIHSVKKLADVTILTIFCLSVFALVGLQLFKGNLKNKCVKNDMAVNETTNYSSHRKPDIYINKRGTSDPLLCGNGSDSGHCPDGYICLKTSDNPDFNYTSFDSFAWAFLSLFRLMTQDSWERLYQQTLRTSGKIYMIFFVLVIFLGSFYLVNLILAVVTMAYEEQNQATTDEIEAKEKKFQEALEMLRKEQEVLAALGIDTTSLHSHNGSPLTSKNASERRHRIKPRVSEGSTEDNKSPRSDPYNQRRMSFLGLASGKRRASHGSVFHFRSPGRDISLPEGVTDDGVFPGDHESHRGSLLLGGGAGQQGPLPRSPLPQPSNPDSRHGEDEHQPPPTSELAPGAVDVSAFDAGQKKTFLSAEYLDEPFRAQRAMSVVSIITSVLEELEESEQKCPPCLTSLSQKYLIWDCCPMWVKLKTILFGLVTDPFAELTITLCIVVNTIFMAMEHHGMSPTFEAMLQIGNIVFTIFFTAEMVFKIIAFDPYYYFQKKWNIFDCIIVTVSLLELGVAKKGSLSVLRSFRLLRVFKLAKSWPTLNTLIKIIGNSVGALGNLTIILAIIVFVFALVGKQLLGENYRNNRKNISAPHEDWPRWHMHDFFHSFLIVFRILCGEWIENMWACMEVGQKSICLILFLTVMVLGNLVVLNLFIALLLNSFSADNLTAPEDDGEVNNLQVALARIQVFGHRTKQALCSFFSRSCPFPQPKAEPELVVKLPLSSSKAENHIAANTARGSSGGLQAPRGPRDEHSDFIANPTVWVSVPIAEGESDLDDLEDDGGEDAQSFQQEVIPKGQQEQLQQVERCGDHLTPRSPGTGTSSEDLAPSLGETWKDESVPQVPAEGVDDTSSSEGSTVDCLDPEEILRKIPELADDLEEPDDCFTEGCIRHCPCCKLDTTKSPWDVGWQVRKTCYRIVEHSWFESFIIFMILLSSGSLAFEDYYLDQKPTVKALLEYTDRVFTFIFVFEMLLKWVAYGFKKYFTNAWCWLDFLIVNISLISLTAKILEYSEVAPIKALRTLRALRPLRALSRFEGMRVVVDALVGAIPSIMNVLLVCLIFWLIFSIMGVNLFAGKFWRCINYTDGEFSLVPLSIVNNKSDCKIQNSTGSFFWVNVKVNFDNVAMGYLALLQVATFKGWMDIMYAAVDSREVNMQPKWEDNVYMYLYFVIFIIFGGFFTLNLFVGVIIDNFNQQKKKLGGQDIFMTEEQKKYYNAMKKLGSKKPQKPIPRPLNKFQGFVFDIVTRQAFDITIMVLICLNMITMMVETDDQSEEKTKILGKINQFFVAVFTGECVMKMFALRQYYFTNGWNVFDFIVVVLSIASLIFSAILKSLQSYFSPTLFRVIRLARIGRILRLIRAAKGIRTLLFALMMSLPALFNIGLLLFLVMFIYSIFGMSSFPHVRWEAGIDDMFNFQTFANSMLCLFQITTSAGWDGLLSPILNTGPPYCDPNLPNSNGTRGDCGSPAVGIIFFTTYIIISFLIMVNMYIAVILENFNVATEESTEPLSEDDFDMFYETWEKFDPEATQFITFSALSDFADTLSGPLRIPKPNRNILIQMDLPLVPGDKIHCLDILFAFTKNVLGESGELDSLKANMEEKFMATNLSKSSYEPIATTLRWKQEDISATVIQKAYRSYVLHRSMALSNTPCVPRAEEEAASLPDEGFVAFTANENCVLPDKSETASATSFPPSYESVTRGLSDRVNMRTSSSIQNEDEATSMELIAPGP
Sequence of Voltage-gated inwardly rectifying potassium channel KCNH2 (Q12809 whole entry): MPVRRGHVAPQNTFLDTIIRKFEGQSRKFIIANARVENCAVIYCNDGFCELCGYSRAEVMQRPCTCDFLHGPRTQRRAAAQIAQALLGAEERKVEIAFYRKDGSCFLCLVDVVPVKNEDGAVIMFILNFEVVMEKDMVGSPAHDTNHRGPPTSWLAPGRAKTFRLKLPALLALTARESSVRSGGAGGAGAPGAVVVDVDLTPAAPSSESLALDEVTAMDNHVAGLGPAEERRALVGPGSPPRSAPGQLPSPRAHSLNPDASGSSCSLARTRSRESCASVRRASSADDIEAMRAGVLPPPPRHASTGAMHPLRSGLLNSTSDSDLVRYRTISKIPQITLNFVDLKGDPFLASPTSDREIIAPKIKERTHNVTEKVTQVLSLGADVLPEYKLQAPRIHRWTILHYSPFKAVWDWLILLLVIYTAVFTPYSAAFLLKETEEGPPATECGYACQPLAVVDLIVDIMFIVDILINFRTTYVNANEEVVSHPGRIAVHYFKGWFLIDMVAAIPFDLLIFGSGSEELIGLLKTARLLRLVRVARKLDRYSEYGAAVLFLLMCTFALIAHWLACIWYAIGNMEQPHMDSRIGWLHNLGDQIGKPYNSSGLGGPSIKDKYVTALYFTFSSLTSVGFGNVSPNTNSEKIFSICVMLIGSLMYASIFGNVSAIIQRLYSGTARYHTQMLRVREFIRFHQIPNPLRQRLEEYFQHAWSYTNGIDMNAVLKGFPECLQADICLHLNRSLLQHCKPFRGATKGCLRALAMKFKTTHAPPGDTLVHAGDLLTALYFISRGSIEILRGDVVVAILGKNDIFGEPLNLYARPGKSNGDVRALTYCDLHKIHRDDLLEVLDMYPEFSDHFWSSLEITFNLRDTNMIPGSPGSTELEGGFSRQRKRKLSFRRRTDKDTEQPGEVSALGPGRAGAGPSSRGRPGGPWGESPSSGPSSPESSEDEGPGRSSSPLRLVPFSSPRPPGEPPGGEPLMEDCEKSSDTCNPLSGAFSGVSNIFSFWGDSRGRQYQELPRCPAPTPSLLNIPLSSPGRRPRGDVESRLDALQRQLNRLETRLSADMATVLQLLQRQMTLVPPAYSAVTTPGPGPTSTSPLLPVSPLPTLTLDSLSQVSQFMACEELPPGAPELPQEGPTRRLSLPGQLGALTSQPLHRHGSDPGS

IC50 [1] [nM]	IC50 [2] [nM]	IC50 [4] [nM]	Ratio IC50 (Homo sapiens [5])	Ratio IC50 (Homo sapiens [6])	Compound	IC50 [3] [nM]	also measured
22	1900	620			O=C(NCc1ccccc1)c1cncc(-c2ccc(Cl)cc2)c1	85	
64		1500	> 30	> 30	Cc1cc(C)cc(NC(=O)c2cccc(-c3ccc(OC(F)(F)F)cc3)n2)c1	510	
		2600			Cc1ncccc1CNC(=O)c1cncc(-c2ccc(Cl)cc2)c1		
26		530	> 30	> 30	Cc1cc(C)cc(NC(=O)c2cncc(-c3ccc(OC(F)(F)F)cc3)c2)c1	97	
21		57	> 30	> 30	Cc1cc(C)cc(NC(=O)c2cncc(-c3ccc(OC(F)(F)F)cc3)n2)c1	34	
180		1400	> 30	> 30	Cc1cc(C)cc(NC(=O)c2coc(-c3ccc(OC(F)(F)F)cc3)n2)c1	2000	
140	18000	680			O=C(NCc1cccnc1Cl)c1cncc(-c2ccc(Cl)cc2)c1	560	
8	50	< 30			O=C(NCc1ccccc1N1CCCCC1)c1cncc(-c2ccc(Cl)cc2)c1	45	
9		610	> 30	> 30	Cc1cc(C)cc(NC(=O)c2cncc(-c3ccc(Cl)cc3)c2)c1	87	
		7900			O=C(NCc1cccnc1)c1cncc(-c2ccc(Cl)cc2)c1		
2		290	> 30	> 30	Cc1cc(C)cc(NC(=O)c2ccc(-c3ccc(OC(F)(F)F)cc3)o2)c1	130	
280		340	> 30	> 30	Cc1cc(C)cc(NC(=O)c2cnc(-c3ccc(OC(F)(F)F)cc3)o2)c1	950	
8		280	> 30	> 30	Cc1cc(C)cc(NC(=O)c2nsc(-c3ccc(OC(F)(F)F)cc3)n2)c1	520	microsomal CLint [7]: > 300 µL/min/mg; microsomal CLint [8]: > 300 µL/min/mg
10	120	32			O=C(NCc1ccccc1N1CCOCC1)c1cncc(-c2ccc(Cl)cc2)c1	130	
3	2800	87			O=C(NCc1cccnc1OCC(F)(F)F)c1cncc(-c2ccc(Cl)cc2)c1	28	IC50 [9]: 4700 nM; IC50 [10]: 19000 nM; microsomal CLint [7]: 68 µL/min/mg; solubility [11]: 3.1 µg/mL (≈ 7.35 µM); bioavailability [12]: 95%; Cmax [13]: 350 ng/mL; clearance [14]: 10 mL/min/kg; Vd [15]: 2 L/kg; Kp [16]: 1; PPB (Plasma): 98.7%; ED50 (Rattus norvegicus [17]): 65 mg/kg; Emax (Rattus norvegicus [18]): 66%; inhibition [19]: > 70%; IC50 [20]: > 10000 nM; IC50 [21]: > 10000 nM; IC50 [22]: > 10000 nM; IC50 [23]: > 10000 nM
87	1600	340			O=C(NCc1cccnc1N1CCOCC1)c1cncc(-c2ccc(Cl)cc2)c1	98	solubility [11]: > 50 µg/mL
51		400	> 30	> 30	Cc1cc(C)cc(NC(=O)c2csc(-c3ccc(OC(F)(F)F)cc3)n2)c1	380	microsomal CLint [7]: > 300 µL/min/mg; microsomal CLint [8]: > 300 µL/min/mg
			100		COc1cc(NC(=O)c2ccc(-c3ccc(Cl)cc3)o2)cc(OC)c1	125	solubility [11]: < 0.1 µg/mL; bioavailability [12]: 10%
4	1200	81			O=C(NCc1ccccc1Cl)c1cncc(-c2ccc(Cl)cc2)c1	66	
470		870	> 30	> 30	Cc1cc(C)cc(NC(=O)c2nc(-c3ccc(OC(F)(F)F)cc3)no2)c1	820	
23		190	> 30	> 30	Cc1cc(C)cc(NC(=O)c2cncc(-c3ccc(C#N)cc3)c2)c1	91	IC50 [9]: > 30000 nM; IC50 [10]: 16000 nM; microsomal CLint [7]: 270 µL/min/mg; solubility [11]: 1.4 µg/mL (≈ 4.28 µM); bioavailability [12]: 17%; Cmax [13]: 740 ng/mL; clearance [14]: 16.7 mL/min/kg; Vd [15]: 0.5 L/kg; Kp [16]: 1.3; fraction unbound [24]: 0.005; ED50 (Rattus norvegicus [17]): 72 mg/kg; Emax (Rattus norvegicus [18]): 60%; inhibition [25]: > 70%; IC50 [20]: > 10000 nM; IC50 [21]: > 10000 nM; IC50 [22]: > 10000 nM; IC50 [23]: > 10000 nM
100		1900	> 30	> 30	Cc1cc(C)cc(NC(=O)c2cncc(-c3ccc(F)cc3)c2)c1	210	
7	670	88			CCOc1ncccc1CNC(=O)c1cncc(-c2ccc(Cl)cc2)c1	32	
14	70	26			O=C(NCc1cccnc1N1CCCCC1)c1cncc(-c2ccc(Cl)cc2)c1	8	
2	110	< 30			Cc1ccccc1CNC(=O)c1cncc(-c2ccc(Cl)cc2)c1	9	
780		11000	> 30	> 30	Cc1cc(C)cc(NC(=O)c2ccnc(-c3ccc(OC(F)(F)F)cc3)c2)c1		
